The values that follow come from PMC3613087, “Aldose Reductase Inhibitory Activity of Compounds from Zea mays L” (BioMed Research International, 2013).

The structures appear in SMILES notation. Read-outs that look alike come from different tables or passages of the source. A value given as a limit tells only on which side of the number the result lay.

For assay [1], the target named is T1, rat lens aldose reductase (RLAR) (Rattus norvegicus, UniProt P07943).
T1 construct: from tissue; host or cells: rat lens (Sprague-Dawley) homogenate, partially purified
As to the kind of experiment: Rat lens aldose reductase (RLAR) inhibitory assay, DL-glyceraldehyde as substrate. The assay is classed as biochemical. Particulars: for inhibition at 1 µg/mL: concentration 1 μg/mL; for inhibition at 5 µg/mL: concentration 5 μg/mL; for inhibition at 10 µg/mL: read-out: Inhibition (%) of RLAR; for IC50: least-squares regression of log concentration vs inhibitory activity; for inhibition at 40 µg/mL: concentration 40 μg/mL. As to the method: RLAR activity was assayed according to the methods described by Dufrane et al.. […] The rat lens homogenate was prepared according to the method of Hayman and Kinoshita with some modifications. […] The partially purified material was separated into 1.0 mL aliquots and stored at −40°C. […] Each 1.0 mL cuvette contained equal units of enzyme, 0.05 M sodium phosphate buffer (pH 6.2), and 0.3 mM NADPH with or without 10 mM substrate and inhibitor. For inhibition studies, concentrated stocks of AR inhibitors prepared in DMSO were used, and the final concentration of DMSO was not more than 1%.

Assay [2] deals with galactitol accumulation in rat lens. Kind of assay: Lens culture and intracellular galactitol measurement. The assay is classed as cell-based. The following applies: 30 mM galactose, compound 5 μg/mL; for Galactitol content μg/lens wet weight (g): mean ± SD of triplicate; for inhibition at 5 µg/mL: Rattus norvegicus. As to the method:
Lenses isolated from 10-week-old male rats were cultured for 6 d in TC-199 medium that contained 15% fetal bovine serum 100 U/mL penicillin and 0.1 mg/mL streptomycin under sterile conditions in an atmosphere of 5% CO2 and 95% air at 37°C. Samples were dissolved in DMSO. […] Each lens was placed in well containing 1.0 mL of medium. Lenses from each group were minced in 150 μL of phosphate-buffered saline on ice, homogenized by sonication, and centrifuged at 22.000 g for 10 min at 4°C. The supernatant was filtered through a membrane filter (Ultrafree-MC, nominal molecular weight limit 10,000; Millipore, Bedford, MA, USA) to remove proteins. HPLC analysis for sugar alcohol in lens was performed with this filtrate after being benzoylated.

Assay [3] has as its target T2, recombinant human aldose reductase (rhAR) (Homo sapiens, UniProt P15121).
T2 construct: purchased Wako Pure Chemical Industries (Osaka, Japan)
Kind of assay: Kinetics of rhAR by active compounds (Lineweaver-Burk plots). Format: biochemical. The following applies: DL-glyceraldehyde 0.1-1.0 mM. As to the method: Reaction mixtures consisted of 0.1 M potassium phosphate, 0.16 mM NADPH, and […] of rhAR with varied concentrations of substrate DL-glyceraldehyde and AR inhibitor in a total volume of 200 μL. Concentrations were ranged from 0.1 to 1.0 mM for DL-glyceraldehyde. rhAR activity was assayed spectrophotometrically by measuring the decrease in absorption of NADPH at 340 nm after substrate addition using Biotek Power Wave XS spectrophotometer (Biotek instruments, VT, USA). K m and V max of rhAR were determined with varying concentrations of DL-glyceraldehyde as a substrate in the absence and presence of different concentrations of inhibitor by Lineweaver-Burk double reciprocal plots. Inhibitory constant (K i) was derived by plotting slopes obtained from Lineweaver-Burk plots versus inhibitors concentration.

The subject of assay [4] is galactitol accumulation in rat erythrocytes. Kind of assay: Blood culture and intracellular galactitol measurement. The assay is classed as cell-based. The following applies: 30 mM galactose, 50 μg/mL compound, 3 h; for inhibition at 50 µg/mL: Rattus norvegicus, Erythrocyte. As to the method: Blood sample was collected in heparin-containing polypropylene tube from 10-week-old male rats. For sugar and sugar alcohol analysis, erythrocytes from heparinized blood were separated from the plasma and buffy coat by centrifuging at 2000 ×g for 10 min. The cells were washed thrice with normal saline (0.9% NaCl) at 4°C. In the final washing, the cells were centrifuged at 2000 ×g for 10 min to obtain a consistently packed cell preparation. The packed cells (1 mL) were then incubated in a Krebs-Ringer bicarbonate buffer (pH 7.4) containing 30 mM galactose in the presence or absence of samples at 37°C in 5% CO2 for 3 h. The erythrocytes were washed with cold saline by centrifuging at 2000 ×g for 10 min, precipitated by adding 6% of cold perchloric acid (3 mL), and centrifuged again at 2000 ×g for 10 min. The supernatant was neutralized with 2.5 M K2CO3 at 4°C and used for galactitol determination. HPLC analysis for sugar and sugar alcohol in blood was performed with this supernatant of red blood cell homogenate after being benzoylated.

Setting [5] is: concentration 10 μg/mL, mean of triplicate.
[6] abbreviates: read-out: IC50 (μg/mL) RLAR (converted).

Broadly, the inhibition is the relative decrease from the control value, in per cent. In the case of `O=C(O)c1c(O)cc(O)cc1O` [2,4,6-trihydroxybenzoic acid (3), 2,4,6-trihydroxybenzoic acid], at 1 µg/mL the inhibition in assay [1] (mean of triplicate) was 16.9%. Besides, the inhibition at 5 µg/mL in assay [1] (mean of triplicate) came to 48.1%. Further, the inhibition at 10 µg/mL in assay [1] (setting [5]) was 73.7%. Besides, the IC50 in assay [1] (read-out: IC50 (μM) RLAR) and in assay [1] (setting [6]) was 34.8 µM throughout.
As for `O=c1c(O[C@@H]2O[C@H](CO)[C@@H](O)[C@H](O)[C@H]2O)c(-c2ccc(O)c(O)c2)oc2cc(O)cc(O)c12` [Hirsutrin (6), hirsutrin], in assay [2], the “Galactitol content μg/lens wet weight (g)” value is 558.92 ± 89.12 μg/lens wet weight (g) and the inhibition at 5 µg/mL is around 33.8%. In assay [3], the “Inhibition type of rhAR” value is reported as “competitive”. Moreover, in assay [1] (mean of triplicate), the inhibition at 1 µg/mL was found to be 27.6% and 5 µg/mL produced 76.2% inhibition. Moreover, the inhibition at 10 µg/mL in assay [1] (setting [5]) was 86.7%. In addition, the IC50 in assay [1] (read-out: IC50 (μM) RLAR) came to 4.78 µM. In addition, in assay [1] (setting [6]), the IC50 was 4.78 µM. Further, in assay [4], the “Galactitol content (μM) in rat erythrocyte” value (from here on “Galactitol content (μM)”) was 15.70 µM and the inhibition at 50 µg/mL was around 32.5%.
As for `O=C(O)CC(=O)OC[C@H]1O[C@@H](Oc2cc3c(O)cc(O)cc3[o+]c2-c2ccc(O)c(O)c2)[C@H](O)[C@@H](O)[C@@H]1O` [Cyanidin-3-(6′′-malonylglucoside) (11), cyanidin 3-(6′′-malonylglucoside)], in assay [1] (mean of triplicate), the inhibition at 1 µg/mL was determined as 19% and the inhibition at 5 µg/mL worked out at 47.8%. In addition, the inhibition at 10 µg/mL in assay [1] (setting [5]) is 68%. In assay [1] (read-out: IC50 (μM) RLAR), the IC50 is 11.7 µM. For the same molecule, in assay [1] (setting [6]), the IC50 is 11.7 µM.
Regarding `O=C(O)CC(=O)OC[C@H]1O[C@@H](Oc2cc3c(O)cc(O)cc3[o+]c2-c2ccc(O)cc2)[C@H](O)[C@@H](O)[C@@H]1O` [pelargonidin 3-(6′′-malonylglucoside)], in assay [1], the “RLAR inhibitory activity (in words)” value is reported as “did not RLAR inhibitory activity”. In addition, the IC50 in assay [1] (setting [6]) is above 19.3 µM.
Consider `OC[C@H]1O[C@@H](Oc2cc3c(O)cc(O)cc3[o+]c2-c2ccc(O)cc2)[C@H](O)[C@@H](O)[C@@H]1O` [Pelargonidin-3-glucoside (9), pelargonidin-3-glucoside], for which the “RLAR inhibitory activity (in words)” value in assay [1] is reported as “did not RLAR inhibitory activity”. In assay [1] (mean of triplicate), testing at 40 µg/mL gave an inhibition of 13.2%. Besides, the IC50 in assay [1] (setting [6]) is above 92.3 µM.
Consider `COc1cc(/C=C/C(=O)O)ccc1O` [Ferulic acid (5), ferulic acid], for which, in assay [1] (mean of triplicate), 1 µg/mL produced 11.2% inhibition and the inhibition at 5 µg/mL was 49.8%. The inhibition at 10 µg/mL in assay [1] (setting [5]) was found to be 77.2%. Besides, the IC50 in assay [1] (read-out: IC50 (μM) RLAR) was 21.9 µM. Besides, the IC50 in assay [1] (setting [6]) is 21.8 µM.
Consider `OC[C@H]1O[C@@H](Oc2cc3c(O)cc(O)cc3[o+]c2-c2ccc(O)c(O)c2)[C@H](O)[C@@H](O)[C@@H]1O` [Cyanidin-3-glucoside (8), cyanidin-3-glucoside], for which, in assay [1], the “RLAR inhibitory activity (in words)” value is on record as “did not RLAR inhibitory activity”. Also, testing at 40 µg/mL in assay [1] (mean of triplicate) gave an inhibition of 47.7%. For the same molecule, the IC50 in assay [1] (setting [6]) is above 89 µM.
In the case of `O=C(O)C=Cc1ccc(O)cc1` [p-hydroxycinnamic acid (4), p-hydroxycinnamic acid], in assay [1] (mean of triplicate), testing at 1 µg/mL gave an inhibition of 13.8% and the inhibition at 5 µg/mL came to 43.7%. In addition, the inhibition at 10 µg/mL in assay [1] (setting [5]) was 77.8%. Moreover, the IC50 in assay [1] (read-out: IC50 (μM) RLAR) turned out to be 36.7 µM. Also, the IC50 in assay [1] (setting [6]) was 36.7 µM.
Turning to `COc1cc(C(=O)O)ccc1O` [Vanillic acid (2), vanillic acid], the inhibition at 10 µg/mL in assay [1] (setting [5]) came out at 20.3%. Moreover, the IC50 in assay [1] (setting [6]) is above 59.5 µM.
Take `COc1cc(-c2oc3cc(O)cc(O)c3c(=O)c2O[C@@H]2O[C@H](CO)[C@@H](O)[C@H](O)[C@H]2O)ccc1O` [3′-methoxyhirsutrin (7), 3′-methoxyhirsutrin]: in assay [2], the “Galactitol content μg/lens wet weight (g)” value is reported as 828.35 ± 73.27 μg/lens wet weight (g) and the inhibition at 5 µg/mL is 1.86%. In addition, in assay [3], the “Inhibition type of rhAR” value is “uncompetitive”. In assay [1] (mean of triplicate), this molecule registered an inhibition at 1 µg/mL of 16.4% and an inhibition at 5 µg/mL of 73.7%. Further, in assay [1] (setting [5]), the inhibition at 10 µg/mL worked out at 89.7%. For the same molecule, the IC50 in assay [1] (read-out: IC50 (μM) RLAR) is 5.67 µM. The IC50 in assay [1] (setting [6]) is 5.66 µM. For the same molecule, in assay [4], the “Galactitol content (μM)” value is 20.19 µM and the inhibition at 50 µg/mL was around 12%.
On to `COc1cc(-c2[o+]c3cc(O)cc(O)c3cc2O[C@@H]2O[C@H](CO)[C@@H](O)[C@H](O)[C@H]2O)ccc1O` [Peonidin-3-glucoside (10), peonidin-3-glucoside], for which the “RLAR inhibitory activity (in words)” value in assay [1] was “did not RLAR inhibitory activity”. The molecule further displayed an inhibition at 40 µg/mL in assay [1] (mean of triplicate) of 37%. In assay [1] (setting [6]), the IC50 was above 86.3 µM.
As to `O=c1c(O)c(-c2ccc(O)c(O)c2)oc2cc(O)cc(O)c12` [Quercetin, quercetin, reference compound], in assay [2], the “Galactitol content μg/lens wet weight (g)” value is on record as 448.81 ± 69.43 μg/lens wet weight (g) and the inhibition at 5 µg/mL was 46.8%. In assay [1] (mean of triplicate), at 1 µg/mL the inhibition was 30.3% and the inhibition at 5 µg/mL worked out at 67.9%. Also, the inhibition at 10 µg/mL in assay [1] (setting [5]) is 83%. In addition, in assay [4], the “Galactitol content (μM)” value came to 16.15 µM and the inhibition at 50 µg/mL turned out to be 30.5%.
As to `O=C(O)c1ccc(O)c(O)c1` [Protochatechuic acid (1), protocatechuic acid], the IC50 in assay [1] (setting [6]) is above 64.9 µM. Besides, in assay [1], the inhibition at 10 µg/mL worked out at 3.22%.
